From article PMC11725774 (Cancer Research Communications, 2025)

Legend:
[1] = test system: TUS/R line 4 (MOLM-14); assay: Growth inhibition of TUS-resistant subline; assay type: cell-based, human; conditions: Homo sapiens
[2] = Plasma protein binding; assay type: in vitro ADME; conditions: mouse, rat, dog, and human plasma
[3] = test system: p-JAK1, p-JAK2, p-STAT3, p-STAT5 in MOLM-14 cells cocultured with HS-5 cells; assay: HS-5 stromal coculture Western blot; assay type: cell-based, human; conditions: concentrations <1 μmol/L; MOLM-14 cocultured with HS-5
Description: Cells were treated as described in respective Results sections and then lysed with RIPA buffer. Western blot analyses were performed with antibodies capable of detecting both total and phosphorylated forms of each kinase purchased from commercial sources. Information on the antibodies used is provided in the Supplementary Materials section.
HS-5 cells were obtained from ATCC. The HS-5 stromal cells (5 × 10^5 cells/well) were seeded into six-well plates, and 24 hours later, MOLM-14 cells (1 × 10^6 cells/well) were seeded into the same plate and then cultured for 48 hours. Cultures were then exposed to test drugs for 2 hours, harvested, and lysates were prepared for Western blotting. For stimulation studies, MOLM-14 or KG-1a cells were seeded at 5.0 to 6.0 × 10^6 cells/well into six-well plates in 2 mL medium. Cells were stimulated with 500 μg/mL fibrinogen (Sigma-Aldrich, Catalog # F3879) for 1 hour at 37°C. Alternatively, they were treated with 10 μg/mL IgG (Invitrogen, Catalog # 31154) for 10 minutes on ice followed by IgG cross-linking with 1 μg/mL anti–human IgG antibody for 10 minutes on ice. After these incubations, the media were removed and the cells were washed with cold PBS, lysed, and analyzed by Western blotting.

[4] = molecular target: CYP2C9 (Homo sapiens, UniProt P11712); assay: CYP inhibition; assay type: in vitro ADME
CYP2C9, sequence (P11712 whole entry): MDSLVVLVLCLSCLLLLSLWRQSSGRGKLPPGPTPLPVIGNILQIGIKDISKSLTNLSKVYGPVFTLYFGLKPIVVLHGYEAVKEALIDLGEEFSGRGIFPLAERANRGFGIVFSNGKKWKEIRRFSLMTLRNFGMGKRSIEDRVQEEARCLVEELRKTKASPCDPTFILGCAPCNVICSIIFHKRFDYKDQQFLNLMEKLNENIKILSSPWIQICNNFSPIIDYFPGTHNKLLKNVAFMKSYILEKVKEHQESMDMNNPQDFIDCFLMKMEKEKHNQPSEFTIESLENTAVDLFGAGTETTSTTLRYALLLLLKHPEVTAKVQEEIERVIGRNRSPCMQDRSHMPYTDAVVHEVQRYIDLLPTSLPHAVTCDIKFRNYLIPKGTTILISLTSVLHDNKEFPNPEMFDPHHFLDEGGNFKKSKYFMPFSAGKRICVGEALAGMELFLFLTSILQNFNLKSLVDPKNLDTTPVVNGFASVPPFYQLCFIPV

[5] = test system: MCL1 in parental MOLM-14 cells; assay: Western blot of apoptotic proteins; conditions: 75 nmol/L TUS, 48-hour exposure

With `Cc1ccc2c(-c3nc(Nc4cc(CN5C[C@@H](C)N[C@@H](C)C5)cc(C5CC5)c4)ncc3Cl)c[nH]c2c1` [TUS, Tuspetinib] the GI50 ([1]; MOLM-14, read-out: GI50 (nM) TUS/R line 4, mean ± SEM (Supplementary Table 6)) was 144 ± 31 nM, the IC50 ([1]; MOLM-14, read-out: IC50 (nmol/L), Mean ± SEM, TUS/R line 4) was 144 ± 31.5 nmol/L and the Plasma protein binding [2] was “high”. The “inhibition of p-JAK1, p-JAK2, p-STAT3, or p-STAT5” value [3] was “Neither TUS nor gilteritinib inhibited”, the Ki [4] was under 1000 nM and the “reduction of MCL1” value [5] was 70%.
